Laboratory results published in patent publication US4393228A, “Epoxysuccinic acid derivatives” (Taisho Pharmaceutical Co., Ltd., priority 1977, dated 1983).

Target: T1, papain (Carica papaya, UniProt P00784)
T1 construct: purchased Sigma Chem. Co
T1 sequence (P00784 134-345): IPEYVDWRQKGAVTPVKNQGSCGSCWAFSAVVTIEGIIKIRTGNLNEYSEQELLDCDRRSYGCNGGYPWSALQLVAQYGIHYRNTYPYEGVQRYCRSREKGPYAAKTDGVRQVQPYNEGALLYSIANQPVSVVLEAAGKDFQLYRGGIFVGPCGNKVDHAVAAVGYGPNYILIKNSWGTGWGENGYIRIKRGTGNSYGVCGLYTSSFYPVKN
Assay: Papain inhibitory activity (milk casein digestion)
Type: biochemical
Settings: papain 80 μg/ml 0.5 ml, cysteine, pH 6.8, 1% milk casein, 40° C., 10 minutes
Procedure, shortened: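 Papain (80 μg/ml stock) preincubated 15 min at 40 °C with inhibitor, cysteine/EDTA activator and phosphate buffer pH 6.8. Then 1% milk casein digested 10 min at 40 °C, stopped with trichloroacetic acid and filtered; filtrate absorbance at 280 nm gives percent inhibition versus no-inhibitor control.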

SMILES | ID50 (amount of inhibitor for 50% inhibition)
O=C(O)[C@@H]1O[C@H]1C(=O)OC1CCCCCCC1 (relative stereo) [EP-36, cyclooctyl potassium epoxysuccinate] | 0.07 γ
CCCCOC(=O)[C@H]1O[C@@H]1C(=O)O (relative stereo) [EP-142, n-butyl potassium epoxysuccinate] | 0.29 γ
O=C(OC1CC1)[C@@H]1O[C@H]1C(=O)OC1CC1 (relative stereo) [EP-27, dicyclopropyl epoxysuccinate] | 20.00 γ
O=C(OCC12CC3CC(CC(C3)C1)C2)[C@@H]1O[C@H]1C(=O)OCC12CC3CC(CC(C3)C1)C2 (relative stereo) [EP-47, di-1-adamantanemethyl epoxysuccinate] | 0.25 γ
Cc1cc(C)cc(COC(=O)[C@@H]2O[C@H]2C(=O)OCc2cc(C)cc(C)c2)c1 (relative stereo) [EP-93, di-3',5'-dimethylbenzyl epoxysuccinate] | 4.31 γ
C[C@H]1CCCC[C@H]1OC(=O)[C@@H]1O[C@H]1C(=O)O (relative stereo) [EP-4, 2'-cis-methylcyclohexyl potassium epoxysuccinate] | 0.09 γ
O=C(OCc1cccc(C(F)(F)F)c1)[C@@H]1O[C@H]1C(=O)OCc1cccc(C(F)(F)F)c1 (relative stereo) [EP-99, di-3'-trifluoromethylbenzyl epoxysuccinate] | 0.50 γ
O=C(O)[C@@H]1O[C@H]1C(=O)OCc1cccs1 (relative stereo) [EP-80, 2'-thenyl potassium epoxysuccinate] | 0.32 γ
O=C(O[C@@H]1CCC[C@H]1Br)[C@@H]1O[C@H]1C(=O)O[C@@H]1CCC[C@H]1Br (relative stereo) [EP-33, di-2'-trans-bromocyclopentylepoxysuccinate] | 3.20 γ
O=C(O)[C@@H]1O[C@H]1C(=O)OCc1cccc2ccccc12 (relative stereo) [EP-82, 1'-naphthylmethyl potassium epoxysuccinate] | 0.34 γ
CCOC(=O)C1OC1C(=O)N[C@@H](CC(C)C)C(=O)OCC (stereo partly drawn) [EP-146, N-(3-ethoxycarbonyloxirane-2-carbonyl)-L-leucine ethyl ester] | 0.39 γ
Cc1cccc(COC(=O)C2OC2C(=O)N[C@@H](Cc2ccc(O)cc2)C(=O)OCc2ccccc2)c1 (stereo partly drawn) [EP-148, N-(3-m-methylbenzyloxycarbonyloxirane-2-carbonyl)-L-tyrosine benzyl ester] | 0.70 γ
O=C(OCCc1ccccc1)[C@H]1O[C@@H]1C(=O)OCCc1ccccc1 (relative stereo) [EP-129, di-2'-phenylethyl epoxysuccinate] | 0.78 γ
O=C(O)[C@@H]1O[C@H]1C(=O)O[C@H]1CC[C@H](Cl)CC1 (relative stereo) [EP-20, 4'-trans-chlorocyclohexyl potassium epoxysuccinate] | 0.06 γ
CCOC(=O)C1OC1C(=O)N[C@@H](CCSC)C(=O)OC (stereo partly drawn) [EP-155, N-(3-ethoxycarbonyloxirane-2-carbonyl)-L-methionine methyl ester] | 9.20 γ
O=C(OCc1cccc2c(Br)cccc12)[C@@H]1O[C@H]1C(=O)OCc1cccc2c(Br)cccc12 (relative stereo) [EP-85, di-5'-bromo-1'-naphthylmethyl epoxysuccinate] | 1.56 γ
COC(=O)[C@H](CCCNC(=N)N)NC(=O)C1OC1C(=O)O (stereo partly drawn) [EP-200, N-(3-carboxyoxirane-2-carbonyl)-L-arginine methyl ester] | 0.88 γ
CCOC(=O)[C@H](Cc1ccccc1)NC(=O)C1OC1C(=O)OC1C2CC3CC(C2)CC1C3 (stereo partly drawn) [EP-210, N-[3-(2'-adanatyloxy)-carbonyloxirane-2-carbonyl]-L-phenyl alanine ethyl ester] | 1.12 γ
O=C(O)[C@@H]1O[C@H]1C(=O)O[C@@H]1CCCC[C@H]1Cl (relative stereo) [EP-8, 2'-trans-chlorocyclohexyl potassium epoxysuccinate] | 0.07 γ
O=C(O)[C@H]1O[C@@H]1C(=O)OCc1ccc(Cl)cc1Cl (relative stereo) [EP-118, 2',4'-dichlorobenzyl potassium epoxysuccinate] | 0.11 γ
CC1CCC(OC(=O)C2OC2C(=O)OC2CCC(C)C2)C1 (stereo not drawn) [EP-31, di-3'-trans-methylcyclopentyl epoxysuccinate] | 3.25 γ
O=C(O)[C@@H]1O[C@H]1C(=O)OCC1CCCO1 (relative stereo) [EP-76, tetrahydro-2-furanmethyl potassium epoxysuccinate] | 0.82 γ

SMILES | ID50 (amount of inhibitor for 50% inhibition)
CCOC(=O)C1OC1C(=O)N[C@@H](CCCNC(C)=O)C(=O)OCc1ccccc1 (stereo partly drawn) [EP-172, N^α -(3-ethoxycarbonyloxirane-2-carbonyl)-N^δ -acetyl-L-ornithine benzyl ester] | 6.20 γ
O=C(OCc1ccccc1Cl)[C@@H]1O[C@H]1C(=O)OCc1ccccc1Cl (relative stereo) [EP-107, di-o-chlorobenzyl epoxysuccinate] | 0.15 γ
CCOC(=O)C1OC1C(=O)N[C@@H](Cc1c[nH]cn1)C(=O)OC (stereo partly drawn) [EP-185, N^α -(3-ethoxycarbonyloxirane-2-carbonyl)-L-histidine methyl ester] | 14.05 γ
O=C(O)[C@H]1O[C@@H]1C(=O)OCC=Cc1ccccc1 (relative stereo) [EP-134, 3'-phenyl-2'-propenyl potassium epoxysuccinate] | 0.71 γ
CCCOC(=O)[C@H]1O[C@@H]1C(=O)NCC(=O)OCc1ccccc1 (relative stereo) [EP-153, N-(3-n-propyloxycarbonyloxirane-2-carbonyl)-glycine benzyl ester] | 17.90 γ
CCOC(=O)C1OC1C(=O)N[C@@H](CCC(N)=O)C(=O)OCc1ccccc1 (stereo partly drawn) [EP-168, N-(3-ethoxycarbonyloxirane-2-carbonyl)-L-glutamine benzyl ester] | 12.50 γ
O=C(O)[C@H]1O[C@@H]1C(=O)OCc1cc(Cl)ccc1Cl (relative stereo) [EP-128, 2',5'-dichlorobenzyl potassium epoxysuccinate] | 0.11 γ
CC(OC(=O)C1OC1C(=O)O)C1CCCC1 (stereo not shown) [EP-46, 1-cyclopentaneethyl potassium epoxysuccinate] | 0.08 γ
O=C(CCNC(=O)[C@@H]1O[C@H]1C(=O)OCCCCC1CCCCC1)OCc1ccccc1 (relative stereo) [EP-208, N-[3-(4'-cyclohexylbutoxy)-carbonyloxirane-2-carbonyl]-β-alanine benzyl ester] | 13.12 γ
COc1ccc(COC(=O)[C@@H]2O[C@H]2C(=O)OCc2ccc(OC)cc2)cc1 (relative stereo) [EP-101, di-p-methoxybenzyl epoxysuccinate] | 1.51 γ
O=C(NCCCC[C@H](NC(=O)C1OC1C(=O)OCCCc1ccccc1)C(=O)OCc1ccccc1)OCc1ccccc1 (stereo partly drawn) [EP-188, N^α -[3-(3'-phenylpropyloxy)-carbonyloxirane-2-carbonyl]-N^ε -carbobenzoxy-L-lysine benzyl ester] | 1.86 γ
O=C(OCC1CCC=CCCC1)[C@@H]1O[C@H]1C(=O)OCC1CCC=CCCC1 (relative stereo) [EP-73, di-4-cyclooctenemethyl epoxysuccinate] | 0.10 γ
C[C@H]1CC[C@H](OC(=O)[C@@H]2O[C@H]2C(=O)O[C@H]2CC[C@H](C)CC2)CC1 (relative stereo) [EP-15, di-4'-trans-methylcyclohexyl epoxysuccinate] | 1.69 γ
CC1(C)C2CCC1(C)C(OC(=O)C1OC1C(=O)O)C2 (stereo not shown) [EP-54, bornyl potassium epoxysuccinate] | 0.09 γ
CC(C)[C@H](NC(=O)C1OC1C(=O)OC1CCCC1)C(=O)OCc1ccccc1 (stereo partly drawn) [EP-205, N-(3-cyclopentyloxycarbonyloxirane-2-carbonyl)-L-valine benzyl ester] | 0.82 γ
C[C@H]1CC[C@H](OC(=O)[C@@H]2O[C@H]2C(=O)O)CC1 (relative stereo) [EP-16, 4'-trans-methylcyclohexyl potassium epoxysuccinate] | 0.08 γ
CCOC(=O)C1OC1C(=O)N[C@@H](CC(C)C)C(N)=O (stereo partly drawn) [EP-167, N-(3-ethoxycarbonyloxirane-2-carbonyl)-L-leucine amide] | 0.50 γ
O=C(O)[C@H]1O[C@@H]1C(=O)OCc1cccc(Cl)c1 (relative stereo) [EP-110, m-chlorobenzyl potassium epoxysuccinate] | 0.24 γ
O=C(OCc1c(Cl)ccc2ccccc12)[C@@H]1O[C@H]1C(=O)OCc1c(Cl)ccc2ccccc12 (relative stereo) [EP-83, di-2'-chloro-1'-naphthylmethyl epoxysuccinate] | 1.55 γ
COC(=O)[C@H](CCSC)NC(=O)C1OC1C(=O)OCc1ccc2c(c1)OCO2 (stereo partly drawn) [EP-149, N-(3-piperonyloxycarbonyloxirane-2-carbonyl)-L-methionene methyl ester] | 0.70 γ
O=C(OCC=Cc1ccccc1)[C@H]1O[C@@H]1C(=O)OCC=Cc1ccccc1 (relative stereo) [EP-133, di-3'-phenyl-2'-propenyl epoxysuccinate] | 2.81 γ
